Reference: patent publication US20210070748A1, “INHIBITORS OF BRUTONS TYROSINE KINASE” (Pharmacyclics LLC, priority 2015, published 2021)

Legend:
[1] = target: T1, JAK3 (Homo sapiens, UniProt P52333); experiment: Inhibition of a panel of kinases, in vitro HotSpot kinase assay: JAK3; assay type: biochemical; settings: D-compounds panel data; 1 μM ATP; read-out: IC50 JAK3
T1 sequence (P52333 1-1124): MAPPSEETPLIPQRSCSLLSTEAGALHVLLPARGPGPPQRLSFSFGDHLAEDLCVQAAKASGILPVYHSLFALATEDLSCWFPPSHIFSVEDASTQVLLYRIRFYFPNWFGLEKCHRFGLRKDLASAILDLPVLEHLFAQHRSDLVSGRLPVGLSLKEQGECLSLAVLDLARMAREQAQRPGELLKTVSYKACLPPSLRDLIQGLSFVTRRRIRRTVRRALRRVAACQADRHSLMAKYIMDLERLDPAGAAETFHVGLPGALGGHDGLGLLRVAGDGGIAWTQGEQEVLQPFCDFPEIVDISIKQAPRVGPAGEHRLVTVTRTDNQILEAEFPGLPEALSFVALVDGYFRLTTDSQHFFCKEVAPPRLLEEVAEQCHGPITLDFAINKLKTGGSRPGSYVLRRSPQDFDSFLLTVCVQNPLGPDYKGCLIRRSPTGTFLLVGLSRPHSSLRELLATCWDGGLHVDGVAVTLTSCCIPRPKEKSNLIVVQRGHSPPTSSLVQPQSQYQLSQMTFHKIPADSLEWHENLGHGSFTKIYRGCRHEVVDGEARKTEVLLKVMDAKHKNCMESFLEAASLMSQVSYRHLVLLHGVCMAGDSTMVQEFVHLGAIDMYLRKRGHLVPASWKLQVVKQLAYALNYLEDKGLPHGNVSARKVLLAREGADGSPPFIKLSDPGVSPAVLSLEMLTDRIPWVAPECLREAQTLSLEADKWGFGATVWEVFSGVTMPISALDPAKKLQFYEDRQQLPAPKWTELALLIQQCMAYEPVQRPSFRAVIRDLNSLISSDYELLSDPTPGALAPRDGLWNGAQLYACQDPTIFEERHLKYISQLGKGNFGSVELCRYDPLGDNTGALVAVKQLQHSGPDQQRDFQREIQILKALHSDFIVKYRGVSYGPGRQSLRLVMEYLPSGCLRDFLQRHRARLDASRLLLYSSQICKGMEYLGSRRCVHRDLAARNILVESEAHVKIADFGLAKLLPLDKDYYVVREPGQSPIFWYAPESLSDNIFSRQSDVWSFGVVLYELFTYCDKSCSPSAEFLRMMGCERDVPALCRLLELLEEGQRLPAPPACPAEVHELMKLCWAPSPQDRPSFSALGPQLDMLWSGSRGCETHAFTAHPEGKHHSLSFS

[2] = target: EGFR (Homo sapiens, UniProt P00533); experiment: Inhibition of a panel of kinases, in vitro HotSpot kinase assay: EGFR; assay type: biochemical; settings: D-compounds panel data; 1 μM ATP
EGFR, sequence (P00533 25-1210): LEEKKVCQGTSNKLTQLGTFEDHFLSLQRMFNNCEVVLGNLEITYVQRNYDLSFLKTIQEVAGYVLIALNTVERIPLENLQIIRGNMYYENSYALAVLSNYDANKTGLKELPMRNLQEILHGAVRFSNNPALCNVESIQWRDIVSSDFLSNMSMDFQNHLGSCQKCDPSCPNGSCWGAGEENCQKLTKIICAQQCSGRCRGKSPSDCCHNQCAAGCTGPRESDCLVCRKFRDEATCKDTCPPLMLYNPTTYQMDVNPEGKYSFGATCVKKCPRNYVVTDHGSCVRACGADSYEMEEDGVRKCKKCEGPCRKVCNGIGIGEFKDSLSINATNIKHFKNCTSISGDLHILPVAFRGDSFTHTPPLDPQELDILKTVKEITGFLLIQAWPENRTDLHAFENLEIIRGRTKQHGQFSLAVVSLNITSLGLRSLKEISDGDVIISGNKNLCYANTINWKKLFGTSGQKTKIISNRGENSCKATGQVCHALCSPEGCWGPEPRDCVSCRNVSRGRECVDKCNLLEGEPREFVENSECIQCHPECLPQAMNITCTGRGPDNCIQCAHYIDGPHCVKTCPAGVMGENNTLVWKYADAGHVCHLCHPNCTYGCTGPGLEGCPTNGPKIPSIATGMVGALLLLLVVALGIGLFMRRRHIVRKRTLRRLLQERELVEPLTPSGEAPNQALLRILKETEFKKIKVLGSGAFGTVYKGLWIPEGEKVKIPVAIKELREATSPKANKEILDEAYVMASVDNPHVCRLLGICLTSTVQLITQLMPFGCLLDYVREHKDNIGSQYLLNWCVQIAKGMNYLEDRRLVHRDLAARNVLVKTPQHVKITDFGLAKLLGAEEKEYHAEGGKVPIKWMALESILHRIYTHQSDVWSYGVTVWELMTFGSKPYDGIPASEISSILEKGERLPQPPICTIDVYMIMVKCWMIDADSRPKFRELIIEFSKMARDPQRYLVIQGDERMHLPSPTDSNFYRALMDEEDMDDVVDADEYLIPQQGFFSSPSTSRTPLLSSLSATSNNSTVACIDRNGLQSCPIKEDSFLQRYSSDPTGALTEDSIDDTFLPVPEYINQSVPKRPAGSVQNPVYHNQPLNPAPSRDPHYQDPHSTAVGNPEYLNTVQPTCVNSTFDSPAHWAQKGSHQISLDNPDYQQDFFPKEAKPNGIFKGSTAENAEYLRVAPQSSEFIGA
Procedure: The degree of inhibition of a panel of kinases is determined using the in vitro HotSpot kinase assay (purified enzymes, ^33P-ATP, an appropriate substrate and 1 μM ATP).

Row | SMILES | IC50 [1] [nM] | IC50 [2] [nM]
1 | C[C@@H]1[C@H](NC(=O)c2ccc(C3CC3)cc2)CCCN1c1cnc(C(N)=O)c(Nc2cnn(C3CCN(C(=O)C4CC4)CC3)c2)n1 [Example D-288, 3-{[1-(1-cyclopropanecarbonylpiperidin-4-yl)-1H-pyrazol-4-yl]amino}-5-[(2R,3R)-3-(4-cyclopropylbenzamido)-2-methylpiperidin-1-yl]pyrazine-2-carboxamide] | 1000 to 10000 | 1000 to 10000
2 | C[C@@H]1[C@H](NC(=O)c2ccc(C3CC3)cc2)CCCN1c1cnc(C(N)=O)c(Nc2cnn(C3CCN(C(=O)C4(C)COC4)CC3)c2)n1 [Example D-289, 5-[(2R,3R)-3-(4-cyclopropylbenzamido)-2-methylpiperidin-1-yl]-3-({1-[1-(3-methyloxetane-3-carbonyl)piperidin-4-yl]-1H-pyrazol-4-yl}amino)pyrazine-2-carboxamide] | 1000 to 10000 | 100 to 1000
3 | C[C@@H]1[C@H](NC(=O)c2ccc(C3CC3)cc2)CCCN1c1cnc(C(N)=O)c(Nc2cnn(C)c2F)n1 [Example D-290, 5-[(2R,3R)-3-(4-cyclopropylbenzamido)-2-methylpiperidin-1-yl]-3-[(5-fluoro-1-methyl-1H-pyrazol-4-yl)amino]pyrazine-2-carboxamide] | > 10000 | 1000 to 10000
4 | C[C@@H]1[C@H](NC(=O)c2ccc(C(C)(C)C)cc2)CCCN1c1cnc(C(N)=O)c(Nc2ccc(OC3CCN(C)CC3)cc2)n1 [Example D-291, 5-[(2R,3R)-3-(4-tert-butylbenzamido)-2-methylpiperidin-1-yl]-3-({4-[(1-methylpiperidin-4-yl)oxy]phenyl}amino)pyrazine-2-carboxamide] | 1000 to 10000 | 100 to 1000
5 | C[C@@H]1[C@H](NC(=O)c2ccc(C(C)(C)C#N)cc2)CCCN1c1cnc(C(N)=O)c(Nc2ccc(OC3CCN(C)CC3)cc2)n1 [Example D-292, 5-[(2R,3R)-3-[4-(1-cyano-1-methylethyl)benzamido]-2-methylpiperidin-1-yl]-3-({4-[(1-methylpiperidin-4-yl)oxy]phenyl}amino)pyrazine-2-carboxamide] | 1000 to 10000 | 100 to 1000
6 | C[C@@H]1[C@H](NC(=O)c2ccc(C3CC3)cc2)CCCN1c1cnc(C(N)=O)c(Nc2cnn(C3CCN(CC(F)(F)F)CC3)c2)n1 [Example D-293, 5-[(2R,3R)-3-(4-cyclopropylbenzamido)-2-methylpiperidin-1-yl]-3-({1-[1-(2,2,2-trifluoroethyl)piperidin-4-yl]-1H-pyrazol-4-yl}amino)pyrazine-2-carboxamide] | 1000 to 10000 | > 10000
7 | C[C@@H]1[C@H](NC(=O)c2ccc(C3CC3)nc2)CCCN1c1cnc(C(N)=O)c(Nc2ccc(OC3CCN(C)CC3)cc2)n1 [Example D-294, 5-[(2R,3R)-3-(6-cyclopropylpyridine-3-amido)-2-methylpiperidin-1-yl]-3-({4-[(1-methylpiperidin-4-yl)oxy]phenyl}amino)pyrazine-2-carboxamide] | 100 to 1000 | 100 to 1000
8 | CC(=O)N1CCN(c2ccc(Nc3nc(N4CCC[C@@H](NC(=O)c5ccc(C6CC6)cc5)[C@H]4C)cnc3C(N)=O)cc2)CC1 [Example D-295, 3-{[4-(4-acetylpiperazin-1-yl)phenyl]amino}-5-[(2R,3R)-3-(4-cyclopropylbenzamido)-2-methylpiperidin-1-yl]pyrazine-2-carboxamide] | 100 to 1000 | 100 to 1000
9 | CC(=O)N1CCC(c2ccc(Nc3nc(N4CCC[C@@H](NC(=O)c5ccc(C6CC6)cc5)[C@H]4C)cnc3C(N)=O)cc2)CC1 [Example D-296, 3-{[4-(1-acetylpiperidin-4-yl)phenyl]amino}-5-[(2R,3R)-3-(4-cyclopropylbenzamido)-2-methylpiperidin-1-yl]pyrazine-2-carboxamide] | 1000 to 10000 | 100 to 1000
10 | C[C@@H]1[C@H](NC(=O)c2ccc(C3CC3)cn2)CCCN1c1cnc(C(N)=O)c(Nc2ccc(OC3CCN(C)CC3)cc2)n1 [Example D-297, 5-[(2R,3R)-3-(5-cyclopropylpyridine-2-amido)-2-methylpiperidin-1-yl]-3-({4-[(1-methylpiperidin-4-yl)oxy]phenyl}amino)pyrazine-2-carboxamide] | 100 to 1000 | 100 to 1000
11 | C[C@@H]1[C@H](NC(=O)c2ccc(C(C)(C)O)cc2)CCCN1c1nnc(C(N)=O)c(Nc2cnn(C)c2)n1 [Example D-298, 3-[(2R,3R)-3-[4-(2-hydroxypropan-2-yl)benzamido]-2-methylpiperidin-1-yl]-5-[(1-methyl-1H-pyrazol-4-yl)amino]-1,2,4-triazine-6-carboxamide] | 100 to 1000 | 1000 to 10000
12 | CCOCCOc1ccc(Nc2nc(N3CCC[C@@H](NC(=O)c4ccc(C5CC5)cc4)[C@H]3C)cnc2C(N)=O)cc1 [Example D-299, 5-[(2R,3R)-3-(4-cyclopropylbenzamido)-2-methylpiperidin-1-yl]-3-{[4-(2-ethoxyethoxy)phenyl]amino}pyrazine-2-carboxamide] | > 10000 | > 10000
13 | C[C@@H]1[C@H](NC(=O)c2ccc(C3CC3)cc2)CCCN1c1cnc(C(N)=O)c(NCC2=CCN(C)CC2)n1 [Example D-300, 5-[(2R,3R)-3-(4-cyclopropylbenzamido)-2-methylpiperidin-1-yl]-3-{[(1-methyl-1,2,3,6-tetrahydropyridin-4-yl)methyl]amino}pyrazine-2-carboxamide] | > 10000 | > 10000
14 | C[C@@H]1[C@H](NC(=O)c2ccc(C3CC3)cc2)CCCN1c1cnc(C(N)=O)c(Nc2ccc(C3CCN(C)CC3)cc2)n1 [Example D-301, 5-[(2R,3R)-3-(4-cyclopropylbenzamido)-2-methylpiperidin-1-yl]-3-{[4-(1-methylpiperidin-4-yl)phenyl]amino}pyrazine-2-carboxamide] | 1000 to 10000 | 100 to 1000
15 | C[C@@H]1[C@H](NC(=O)c2ccc(C(C)(C)O)cc2F)CCCN1c1cnc(C(N)=O)c(Nc2cnn(C)c2)n1 [Example D-302, 5-[(2R,3R)-3-[2-fluoro-4-(2-hydroxypropan-2-yl)benzamido]-2-methylpiperidin-1-yl]-3-[(1-methyl-1H-pyrazol-4-yl)amino]pyrazine-2-carboxamide] | 100 to 1000 | 10 to 100
16 | C[C@@H]1[C@H](NC(=O)c2ccc(C3CC3)cc2)CCCN1c1cnc(C(N)=O)c(Nc2ccc3c(c2)CCOC3)n1 [Example D-303, 5-[(2R,3R)-3-(4-cyclopropylbenzamido)-2-methylpiperidin-1-yl]-3-[(3,4-dihydro-1H-2-benzopyran-6-yl)amino]pyrazine-2-carboxamide] | > 10000 | > 10000
17 | CCN(C)C(=O)N[C@@H]1CCCN(c2cnc(C(N)=O)c(Nc3cnn(C)c3)n2)[C@@H]1C [Example D-304, 5-[(2R,3R)-3-{[ethyl(methyl)carbamoyl]amino}-2-methylpiperidin-1-yl]-3-[(1-methyl-1H-pyrazol-4-yl)amino]pyrazine-2-carboxamide] | 1000 to 10000 | 1000 to 10000
18 | C[C@@H]1[C@H](NC(=O)c2ccc(C3CC3)nc2)CCCN1c1cnc(C(N)=O)c(Nc2ccc(N3CCC(F)(F)CC3)cc2)n1 [Example D-305, 5-[(2R,3R)-3-(6-cyclopropylpyridine-3-amido)-2-methylpiperidin-1-yl]-3-{[4-(4,4-difluoropiperidin-1-yl)phenyl]amino}pyrazine-2-carboxamide] | > 10000 | 1000 to 10000
19 | C[C@@H]1[C@H](NC(=O)N(C)C)CCCN1c1cnc(C(N)=O)c(Nc2ccc(N3CCC(F)(F)CC3)cc2)n1 [Example D-306, 3-{[4-(4,4-difluoropiperidin-1-yl)phenyl]amino}-5-[(2R,3R)-3-[(dimethylcarbamoyl)amino]-2-methylpiperidin-1-yl]pyrazine-2-carboxamide] | 1000 to 10000 | 1000 to 10000
20 | C[C@@H]1[C@H](NC(=O)c2ccc(C3CC3)cc2)CCCN1c1cnc(C(N)=O)c(Nc2cnn(C3CCC(F)(F)CC3)c2)n1 [Example D-307, 5-[(2R,3R)-3-(4-cyclopropylbenzamido)-2-methylpiperidin-1-yl]-3-{[1-(4,4-difluorocyclohexyl)-1H-pyrazol-4-yl]amino}pyrazine-2-carboxamide] | > 10000 | > 10000
